From publication PMC3519673, “Discovery of indole tetrafluorophenoxymethylketone-based potent novel small molecule inhibitors of caspase-3” (Organic and Medicinal Chemistry Letters, 2012)
Converted amounts (≈) assume the structure as drawn. Where two headings read alike, the source gives them in different places.

Assays:
Cathepsin-B = target: T1, Cathepsin-B (Homo sapiens, UniProt P07858); assay: Cathepsin-B counterscreen assay; type: biochemical; conditions: read-out: % inhibition at 10 µM Cathepsin-B; compound 10 µM
T1 construct: purchased Sigma-Aldrich C0150
Experimental: (§1) Screening of compounds was carried out at two different concentrations (1 and 10 μM). Selected compounds were subjected to dose response determination in semi-log concentration (serial threefold dilutions) at constant DMSO concentration of 1% with highest compound concentration at 100 μM. Counterscreening against some of proteases, permeability, and CYP450 inhibition studies was carried out for few selected compounds at 10 μM concentration.
(§2) Thrombin assay reaction mixture (100 μl) contained 140 ng of enzyme and 100 μM of substrate (Boc-Glu-Ala-Arg-AMC) in Tris–HCl buffer pH 8.5. Cathepsin-B assay buffer contained 50 mM MES, 0.01% CHAPS, 100 μM of substrate (Z-Phe-Arg-AMC HCl), and 0.1 U of enzyme. […] The enzyme activities were monitored (ex/em 355/460) as a time-course measurement of the increase in fluorescence signal from fluorescently labeled peptide substrate for 120 min at room temperature. Percent inhibition calculation was calculated using following equation:
(§3) Percent inhibition=100−[RFU in test wells/RFU in basal control wells×100]

caspase-1 = target: T2, caspase-1 (Homo sapiens, UniProt P29466); assay: Caspase-1 counterscreen assay; type: biochemical; conditions: read-out: % inhibition at 10 µM Caspase-1; compound 10 µM
T2 construct: purchased Enzo Life Sciences, Inc. BML-AK701
T2 sequence (P29466 120-297 limits assumed): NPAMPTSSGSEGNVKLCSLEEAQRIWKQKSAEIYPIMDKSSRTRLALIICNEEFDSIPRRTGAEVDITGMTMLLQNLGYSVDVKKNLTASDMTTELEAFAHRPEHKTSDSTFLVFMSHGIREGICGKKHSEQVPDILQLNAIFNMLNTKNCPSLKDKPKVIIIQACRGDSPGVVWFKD
T2 sequence (P29466 317-404 limits assumed): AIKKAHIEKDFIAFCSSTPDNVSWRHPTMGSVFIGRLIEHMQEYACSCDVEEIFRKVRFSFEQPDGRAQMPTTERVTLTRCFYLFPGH
Experimental: as §1
The ability of NCEs to inhibit the activity of human recombinant caspases as well as other proteases was determined using a standard fluorometric microplate assay as described in [1, 10]. The assay buffer contained 25 mM sodium HEPES, 50 mM KCl, 0.1% CHAPS, and 1 mM β-mercaptoethanol, pH7.4. To a reaction mixture (100 μL) containing the above buffer, 10 μM AC-DEVD-AMC and 10 U caspase-3 were added in a black 96-well microplate. Activities of the other caspases were determined similarly using the corresponding fluorogenic substrates: 50 U of caspase-1 and 10 μM N-acetyl-Tyr-Val-Ala-Asp-7-amido-4-methylcoumarin.
as §3

[1] = Kinetic aqueous solubility (shake flask, 96-well); type: physicochemical; conditions: pH 7.4, aqueous buffer, kinetic from dmso stock
Experimental: After 16 h of incubation, the supernatant was subjected for analysis.

[2] = tested on: Jurkat (human T-cell leukemia) cell line; assay: Anti-apoptotic assay using Jurkat T-cells (staurosporine-induced cell death, resazurin); type: cell-based; conditions: compound 10 µM, staurosporine 100 nM, 48 h
Experimental: The anti-apototic assay was done as described in [10]. Briefly, Jurkat (human T-cell leukemia) cell line (ATCC) was cultured in RPMI-1640 medium with L-glutamine and supplemented with 10% fetal bovine serum and antibiotic solution. Cells were grown at 37°C in 5% CO2 and 95% air environment at 100% humidity. Cells were plated in 45 μL/well of serum-free medium at 2.5 × 10^5 cells/mL and incubated for 1 h before compound addition. Compound stock solutions were diluted with growth medium and added to the cells to obtain desired concentration. One percent DMSO was used for control wells (without the addition of compounds). […] Cells were further incubated for 120 min, and the fluorescence was measured using the Wallac Victor2V plate reader (PerkinElmer Life Sciences) at 531/589 nm ex/em wavelengths. The percent protection from induced apoptosis was calculated using the following equation: […]
where ΔFl denotes the difference in resazurin fluorescence measured at point 0 and after 120-min incubation with the cells; subscripts t, s, and n are fluorescence in the presence of a test compound + staurosporine, staurosporine alone, and no staurosporine, respectively.
Protection against cellular apoptosis was determined using staurosporine as apoptotic inducer in Jurkat cells (human T-cell leukemia), as described in the ‘Methods’ section. […]

Microsomal stability = type: in vitro ADME; conditions: mouse liver microsomes, 1 µM, NADPH and UDPGA
Experimental: Mouse liver microsomes (in-house prepared) and pooled human liver microsomes (BD Gentest, CA, USA) were incubated with 1-μM test compounds at 37°C for 15 and 60 min using NADPH and UDPGA as co-factors. The reaction was stopped by the addition of cold acetonitrile, precipitated protein was removed, and the supernatants were analyzed.

[3] = In vivo pharmacokinetic experiment in mice; conditions: mouse, plasma, male NMRI mice
Experimental: Pharmacokinetic profiling was carried out using oral and intravenous route (IV) dosing in male NMRI mice. […] The plasma samples were collected at different time points until 8 hr and were stored frozen at −80°C until analysis. Quantitative bio-analysis of the drugs in the plasma samples was done using an LC-MS/MS. Plasma samples were analyzed following protein precipitation of plasma with acetonitrile containing internal standards.
Curve fitting was performed with Prism 5.1 software (GraphPad Software Inc., San Diego, CA) using built-in equation describing corresponding data models. All the other data were mentioned as mean ± standard deviation of triplicates values. PK parameters were determined using WinNonlin 5.2 software.
Compounds were administered to male NMRI mice either as 1 mg/kg intravenous bolus in 1% (v/v) DMA, 10% (w/v) HP-b-CD in normal saline, or orally by gavage at 5 mg/kg in 1% (v/v) DMA, 1% (w/v) Poloxamer 147, and 10% (w/v) HP-b-CD in saline.

caspase-3 = target: T3, caspase-3 (Homo sapiens, UniProt P42574); assay: Caspase-3 fluorometric inhibition assay (AC-DEVD-AMC substrate); type: biochemical; conditions: 10 µM AC-DEVD-AMC, 10 U caspase-3
T3 construct: purchased Sigma-Aldrich C1224
T3 sequence (P42574 29-175 limits assumed): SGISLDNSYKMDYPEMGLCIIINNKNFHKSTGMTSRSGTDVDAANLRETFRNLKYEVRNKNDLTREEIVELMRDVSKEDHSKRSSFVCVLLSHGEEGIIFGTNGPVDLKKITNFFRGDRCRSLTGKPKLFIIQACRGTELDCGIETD
T3 sequence (P42574 176-277 limits assumed): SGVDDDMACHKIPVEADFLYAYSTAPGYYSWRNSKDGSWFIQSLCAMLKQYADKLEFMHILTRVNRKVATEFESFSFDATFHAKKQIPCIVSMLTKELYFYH
Experimental: Fluorescence measurements were done using VICTOR2V 96/384 multilabel plate reader (PerkinElmer Life Sciences, MA, USA) at λex = 360 nm and λem = 460 nm top readout (ex, excitation; em, emission) in Corning black 96-well flat bottom plates. The enzyme activity was measured at 30°C after 30 min. Trans-epithelial resistance (TEER) measurements (for monolayer integrity) were made using instrument from World Precision Instrument (Florida, USA). HPLC (1100 series, Agilent Technologies Inc., CA, USA) was performed on reverse phase column (Zorbax Eclipse XDB C18, 150 × 4.6 mm, 5 μm). LC-MS/MS was performed in multiple reaction monitoring mode using Applied Biosystems API 3200 (Chromos, Singapore) coupled to Agilent Technologies 1100 series HPLC on a reverse phase column (Zorbax Eclipse XDB C18, 50 × 4.6 mm, 5 μm).
Screening of compounds was carried out at two different concentrations (1 and 10 μM). […]
The ability of NCEs to inhibit the activity of human recombinant caspases as well as other proteases was determined using a standard fluorometric microplate assay as described in [1, 10]. […] Activities of the other caspases were determined similarly using the corresponding fluorogenic substrates: 50 U of caspase-1 and 10 μM N-acetyl-Tyr-Val-Ala-Asp-7-amido-4-methylcoumarin. […]

Thrombin = target: T4, Thrombin (Homo sapiens, UniProt P00734); assay: Thrombin counterscreen assay; type: biochemical; conditions: read-out: % inhibition at 10 µM Thrombin; compound 10 µM
T4 construct: purchased Enzyme Research Laboratories HT1002a
Experimental: as §1, §2, §3

inhibition at 10 µM (Cathepsin-B): 0% | inhibition at 10 µM (caspase-1): 59% | solubility at 16 h [1]: 145 µM (≈ 82.6 µg/mL) | % stable at 60 min MLM (Microsomal stability): 61% | Vd ([3]; 1 mg/kg IV): 11.8 L/kg | clearance ([3]; 1 mg/kg IV): 150 mL/min/kg | k el ([3]; 1 mg/kg IV, 5 mg/kg PO): 0.000194 s⁻¹ | half-life ([3]; 1 mg/kg IV, 5 mg/kg PO, read-out: Beta t1/2 (converted)): 54 min | AUC(0-inf) ([3]; 1 mg/kg IV, read-out: AUC (0-inf) iv): 111 ng·h/mL | Cmax ([3]; 5 mg/kg PO): 113 ng/mL | Tmax ([3]; 5 mg/kg PO): 30 min | bioavailability ([3]; 5 mg/kg PO vs 1 mg/kg IV, read-out: F (oral bioavailability)): 17.9% | AUC(0-inf) ([3]; 5 mg/kg PO, read-out: AUC (0-inf) po): 99.1 ng·h/mL | IC50 (caspase-3): 35 nM | inhibition at 10 µM (Thrombin): 7%
Structure (SMILES): C[C@H](NC(=O)C(=O)Nc1ccccc1C(C)(C)C)C(=O)N[C@@H](CC(=O)O)C(=O)COc1c(F)c(F)cc(F)c1F [IDN6556]
% protection against staurosporine-induced cell death [2]: 73%
